Patent US5976523A, “Method for healing compromised tissues using pyrimidine derivatives” (Mitsui Pharmaceuticals, Inc., priority 1995, dated 1999)
Structures can show the parent of a compound that is named as a salt.

Tests used:
fractured tibia = test: Tibia fracture model, histology on the 7th day; assay type: in vivo, Wistar rat; details: 5 mg/kg i.p. once a day, 7 days
Method: The tibia of each Wistar (body weight: 260-330 g) was broken manually and stabilized in situ by using a 22G syringe needle as an intramedullary nail under anesthesia by pentobarbital. The rats were divided into two groups. To one of the groups, 2-piperazino-6-methyl-5-oxo-5,6-dihydro(7H)pyrro[3,4-d]pyrimidine maleate was intraperitoneally administered at 5 mg/kg once a day everyday for 7 days from immediately after the fracture. The other group was used as a control group, to which physiological saline was administered likewise. The rats in both the groups were sacrificed on the 7th day. The broken tibia of each rat was […], embedded in paraffin and then subjected to HE staining. The texture of the fractured site was pathohistologically examined. In the control group, proliferation mesenchymal cells, which were considered to be derived from periosteal cells, and membranous ossification of an osteoid tissue were observed centering around the fractured site on the 7th day after the fracture. Further, honeycomb-shaped proliferation of chondrocytes in a small number associated with formation of a cartilage matrix was observed inside the mesenchymal cells.

skin or muscle cut = test: Skin/muscle cut-suture rat model; assay type: in vivo; details: scanning electron microscope; indicative of the possibility
Text: As a feature specific to this model, collagen fibers form a plate-like structure so that they cross at right angles with muscle fibers, and macrophages accumulate on the plate-like structure. This plate-like collagen is considered to serve in such a way that it prevents detachment or fraying of both cut ends of muscle fibers and assists formation of an anastomosis.

PDGF-A mRNAs = test: Polysome distribution (translation) of PDGF-A mRNAs in rat SMCs; assay type: cell-based
Method: SMCs were prepared following the method proposed by Ross and Klebanoff in "J. Cell. […] A rat thoracic aorta was excised. After the tunica externa was peeled off, the tunica media and the tunica intima were minced into 2-3 mm^2. The minced sections were placed standstill in a 25-cm^2 flask which contained Waymouth's MB 752/1 medium containing 10% FBS and 80 ng/ml of gentamycin (product of Schering-Plough Corp.), followed by incubation at 37° C. for 2 to 3 weeks in the presence of 5% carbon dioxide gas (primary culture). The same volume of a trypsin-EDTA solution was added to the flask. After the sections were treated at 37° C. for 5 minutes to peel off cells, the cells were diluted with 10% FBS-Waymouth's MB 752/1 medium and then subcultured (second generation). Subculture was successively conducted likewise whenever the SMC became confluent. In the following experiments, the cells from the 5th generation to the 12th generation were employed. After reach in confluence of cells, the cultured SMCs were cultured for 2 days in a serum-free medium to avoid influence of serum. The SMCs were then added with thrombin (1.0 U/ml) or serotonin (5 μM), followed by incubation at 37° C. for 6 hours under which bring about induction of PDGF-A mRNAs at the maximum. To prevent dissociation of ribosomes and mRNAs, cycloheximide (100 μg/ml) was added 5 minutes before cells were collected. […] Biol. Chem.", 267, 508 ff, 1992 with slight modifications. The cells, which had been collected by the treatment with trypsin, were washed with PBS containing cycloheximide (100 μg/ml). A cell precipitate was then added with 500 μl of a high-salt lysis buffer (20 mM Tris-HCl pH 7.5, 250 mM NaCl, 5 mM MgCl2, 0.1% Noni det P-40, 0.2% DOC) for homogenization. The homogenate was centrifuged under 12,000×g at 4° C. for 10 minutes. The resulting supernatant was added with 67 μl of a heparine mix (7.4 mg/ml heparine, 1.1M NaCl, 15 mM DTT and RNasin). 200 μl of the extract were layered on 5 ml of 0.5-1.25M linear sucrose gradient (which contained 20 mM Tris-HCl pH 7.4, 10 mM NaCl, 3 mM MgCl2), followed by centrifugation under 45,000 rpm for 90 minutes in a "Hitachi […]". While monitoring the absorbance at 260 nm, ten (10) fractions were obtained. […] Subsequent to incubation at 37° C. for 1 hour, each fraction was extracted once with 1/2 volume of phenol, twice with 1/2 volume aliquots of chloroform, and once with the equal volume of chloroform, whereby proteins were removed. The water layer was added with glycogen (20 μg/ml) as a coprecipitant and then with 0.03M of sodium acetate, and RNAs were caused to precipitate with 2 volumes of ethanol. After RNAs were incubated at 65° C. for 5 minutes in a solution containing 60% of formamide, 5.9% of formaldehyde and the equal volume of MOPS buffer (10 mM MOPS pH 7.0, 4 mM NaOAc, 0.5 mM EDTA), electrophoresis was conducted across 1.2% agarose gels containing the equal volume of MOPS buffer so that RNAs were. isolated. After the gel was washed with 20 volumes of SSC, RNAs were blotted overnight to a Gene Screen Plus membrane by the capillary method. Fixing of the RNAs was conducted by exposing them for 1 minute at a distance of 10 cm from […]. Using a "QuickHyb Hybridization Solution" (product of Strategene Ltd.), hybridization was conducted following the instruction manual attached to the solution. Results of autoradiography were quantitated with reference to the NIH Image. […]

CN1Cc2nc(N3CCNCC3)ncc2C1=O [Compound B, 2-piperazino-6-methyl-5-oxo-5,6-dihydro(7H)pyrro[3,4-d]pyrimidine maleate]
proliferation of mesenchymal cells at the fractured site (fractured tibia): marked proliferation of mesenchymal cells | proliferation of chondrocytes associated with formation of a hyaline cartilage matrix enchondral ossification (fractured tibia; vs control group): in a quantity apparently much greater than that of the control group | accumulation of macrophages (skin or muscle cut): effectively acts for the promotion of the formation of such plate-like collagen and the accumulation of macrophages | formation of plate-like collagen (skin or muscle cut): effectively acts for the promotion of the formation of such plate-like collagen | translation state of 1.3 kb PDGF-A mRNAs (PDGF-A mRNAs; compound): in a translated form | translation state of 1.7 kb PDGF-A mRNAs (PDGF-A mRNAs; compound, serum-free medium): converted into a translated form | translation state of PDGF-A mRNAs (PDGF-A mRNAs; thrombin + compound): converted into a translated form
